Measured values from the NIST ThermoML archive (doi:10.1016/j.fluid.2014.04.004).
Numbers after ± are expanded uncertainties.

Assays:
[1] = Liquid, Closed cell (Static) method
[2] = excess molar enthalpy (molar enthalpy of mixing); xn = mol fraction of the nth substance listed; details: 303.15 K, 101 kPa, Liquid, Calvet calorimetry

Cc1cccc(C)n1 [2,6-dimethylpyridine]
[1]
Details	vapor or sublimation pressure [kPa]
283.37 K	0.3 ± 0.004
288.33 K	0.42 ± 0.004
293.3 K	0.581 ± 0.006
298.3 K	0.794 ± 0.007
303.27 K	1.07 ± 0.01
313.27 K	1.879 ± 0.012
323.24 K	3.163 ± 0.015
333.21 K	5.14 ± 0.019
343.2 K	8.101 ± 0.026
353.14 K	12.23 ± 0.034

C1CCCCC1 [cyclohexane]
[1]
Details	vapor or sublimation pressure [kPa]
283.32 K	6.389 ± 0.023
288.28 K	8.195 ± 0.026
293.27 K	10.42 ± 0.031
298.25 K	13.17 ± 0.037
303.27 K	16.45 ± 0.046
313.24 K	24.97 ± 0.062
323.21 K	36.72 ± 0.086
333.21 K	52.48 ± 0.12
343.18 K	72.98 ± 0.15
353.14 K	99.11 ± 0.2

Cc1cncc(C)c1 [3,5-dimethylpyridine]
[1]
Details	vapor or sublimation pressure [kPa]
273.5 K	0.04 ± 0.001
283.45 K	0.085 ± 0.002
293.47 K	0.172 ± 0.002
303.54 K	0.331 ± 0.004
313.56 K	0.612 ± 0.006
323.59 K	1.078 ± 0.01
333.66 K	1.824 ± 0.011
343.62 K	2.973 ± 0.014
353.63 K	4.688 ± 0.018

Cc1cccc(C)n1 [2,6-dimethylpyridine] + C1CCCCC1
[2]
Details	excess molar enthalpy [kcal/mol]
x1 = 0.09	0.123 ± 0.00263
x1 = 0.22	0.239 ± 0.00311
x1 = 0.275	0.269 ± 0.00311
x1 = 0.308	0.281 ± 0.00311
x1 = 0.434	0.299 ± 0.00335
x1 = 0.529	0.283 ± 0.00335
x1 = 0.669	0.226 ± 0.00287
x1 = 0.806	0.142 ± 0.00263
x1 = 0.8998	0.0748 ± 0.00263

Cc1cncc(C)c1 [3,5-dimethylpyridine] + C1CCCCC1
[2]
Details	excess molar enthalpy [kcal/mol]
x1 = 0.085	0.112 ± 0.00263
x1 = 0.221	0.227 ± 0.00311
x1 = 0.312	0.276 ± 0.00311
x1 = 0.386	0.295 ± 0.00335
x1 = 0.515	0.306 ± 0.00335
x1 = 0.635	0.279 ± 0.00311
x1 = 0.735	0.217 ± 0.00287
x1 = 0.83	0.149 ± 0.00263
x1 = 0.899	0.0951 ± 0.00263
